According to the supplement of paper PMC4380931:
± gives the standard deviation of the averaged measurements.

How the values were obtained:
Assay in all cases: relative viability (cell count relative to DMSO-treated control) (fraction of DMSO control); higher = more viable cells / less drug effect
MZ7MEL = tested on: MZ7MEL
Method: (§1)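 BRAF V600E/D melanoma cell lines were seeded in 96-well plates, treated in 4 replicates with seven doses (3.16 nM to 3.16 uM) of RAF/MEK inhibitors for 24, 48 or 72 h, and stained with Hoechst 33342 (nuclei) and DEVD-NucView488 caspase-3 substrate. Plates were imaged on an Operetta. Relative viability is the cell count normalised to a DMSO-treated control; apoptosis fraction is the fraction of NucView488-positive nuclei.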

WM115 = tested on: WM115
Method: as §1

C32 = tested on: C32
Method: as §1

Cc1ccc(NC(=O)c2cccc(C(C)(C)C#N)c2)cc1Nc1ccc2ncn(C)c(=O)c2c1 [AZ628]
relative viability
Conditions | 0.00316 µM | 0.01 µM | 0.0316 µM | 0.1 µM | 0.316 µM | 1 µM | 3.16 µM
C32, 24 h | 1.09 ± 0.15 | 1.12 ± 0.043 | 1.05 ± 0.15 | 1.02 ± 0.061 | 0.87 ± 0.05 | 0.757 ± 0.036 | 0.877 ± 0.035
C32, 48 h | 1.17 ± 0.085 | 1.14 ± 0.19 | 1.01 ± 0.11 | 0.793 ± 0.072 | 0.428 ± 0.075 | 0.109 ± 0.0073 | 0.0749 ± 0.0091
C32, 72 h | 0.992 ± 0.19 | 1.1 ± 0.099 | 0.947 ± 0.12 | – | – | – | –
MZ7MEL, 24 h | 1.02 ± 0.051 | 1.02 ± 0.19 | 1.05 ± 0.23 | 1.19 ± 0.13 | 1.12 ± 0.12 | 0.945 ± 0.082 | 0.878 ± 0.19
MZ7MEL, 48 h | 1.03 ± 0.16 | 1.04 ± 0.12 | 1 ± 0.072 | 0.726 ± 0.031 | 0.549 ± 0.044 | 0.435 ± 0.042 | 0.465 ± 0.048
MZ7MEL, 72 h | 1.2 ± 0.13 | 1.11 ± 0.13 | 0.586 ± 0.092 | 0.336 ± 0.021 | 0.33 ± 0.03 | 0.356 ± 0.058 | 0.327 ± 0.039
WM115, 24 h | 1.19 ± 0.13 | 1.47 ± 0.33 | 1.51 ± 0.39 | 1.53 ± 0.37 | 1.37 ± 0.52 | 0.87 ± 0.18 | 0.946 ± 0.31
WM115, 48 h | 1.06 ± 0.49 | 1.19 ± 0.42 | 1.47 ± 0.23 | 1.31 ± 0.15 | 1.11 ± 0.24 | 0.658 ± 0.13 | 0.424 ± 0.078
WM115, 72 h | 1.03 ± 0.06 | 1.04 ± 0.068 | 0.801 ± 0.029 | 0.594 ± 0.019 | 0.281 ± 0.013 | 0.172 ± 0.053 | 0.0874 ± 0.028
